Measurements taken from the supplement of paper PMC11208160.

Test: recombinant UMI read abundance after kanamycin selection (control-corrected) (log10(CPM+1)); higher = more efficient recombination; extreme values may be limits of the assay; sequences stand for … in AGTGCAGAGAAAATCGGCCAGTTTTCTCTGCCTGCAGTCCGCATGCCGTGGGACCCCTTGGGTTCTAACCTGTTGCCTAGATTTATGCAGCGGACTGCCTTTCTCCCAAAGTGATAAACCGG…AGGTTGGTTTCACT; site = the 11-nt donor
Procedure, shortened: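 Reported values are log10(CPM+1) from a pooled Escherichia coli screen of donor and donor-binding-loop pairs for the IS621 bridge recombinase. Selection used IPTG (0.07 mM) plus kanamycin, against unselected plating, each in two replicates. Recombinant UMIs were amplified across the donor–target junction, sequenced, converted to CPM, averaged over replicates and scaled by control-derived factors.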
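Note: IS621 bridge recombinase in Escherichia coli cells against a fixed T5 target plasmid.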

| Sequence | recombinant UMI read abundance (log10) |
| --- | --- |
| CCTAAACCATGGACCGGTTTTCCCGGTAATCCGTATTTGAT (site CCTAAACCTAT) | 0 |
| CCTAAACCATGGACCGGTTTTCCCGGTAATCCGTATTTGAT (site CCTAAAGCTAT) | 0 |
| CCTAAACCATGGACCGGTTTTCCCGGTAATCCGTATTTGAT (site CCTAAATCTAT) | 0 |
| CCTAAAGCATGGACCGGTTTTCCCGGTAATCCGTATTTGAC (site CCTAAAGCTAT) | 0 |
| CCTAAAGCATGGACCGGTTTTCCCGGTAATCCGTATTTGAC (site CCTAAAGCTCT) | 0.00302 |
| CCTAAAGCATGGACCGGTTTTCCCGGTAATCCGTATTTGAC (site CCTAAAGCTGT) | 0 |
| CCTAAAGCATGGACCGGTTTTCCCGGTAATCCGTATTTGAC (site CCTAAAGCTTT) | 0.0124 |
| CCTAAATCATGGACCGGTTTTCCCGGTAATCCGTATTTGAT (site CCTAAAACTAT) | 0 |
| CCTAAATCATGGACCGGTTTTCCCGGTAATCCGTATTTGAT (site CCTAAACCTAT) | 0 |
| CCTAAATCATGGACCGGTTTTCCCGGTAATCCGTATTTGAT (site CCTAAAGCTAT) | 0 |
| CCTAAATCATGGACCGGTTTTCCCGGTAATCCGTATTTGAT (site CCTAAATCTAT) | 0.00669 |
| CCTAACCCATGGACCGGTTTTCCCGGTAATCCGTATTTGAG (site CCTAACCCTCT) | 0.00788 |
| CCTAACGCATGGACCGGTTTTCCCGGTAATCCGTATTTGCT (site CCTAACGCTAG) | 0 |
| CCTAATACATGGACCGGTTTTCCCGGTAATCCGTATTTGCC (site CCTAATACTGA) | 0 |
| CCTAATACATGGACCGGTTTTCCCGGTAATCCGTATTTGCC (site CCTAATACTGC) | 0 |
| CCTAATACATGGACCGGTTTTCCCGGTAATCCGTATTTGCC (site CCTAATACTGG) | 0 |
| CCTAATACATGGACCGGTTTTCCCGGTAATCCGTATTTGCC (site CCTAATACTGT) | 0 |
| CCTAATACATGGACCGGTTTTCCCGGTAATCCGTATTTGGA (site CCTAATACTAC) | 0 |
| CCTAATACATGGACCGGTTTTCCCGGTAATCCGTATTTGGA (site CCTAATACTCC) | 0.00642 |
| CCTAATACATGGACCGGTTTTCCCGGTAATCCGTATTTGGA (site CCTAATACTGC) | 0 |
| CCTAATACATGGACCGGTTTTCCCGGTAATCCGTATTTGGA (site CCTAATACTTC) | 0.00465 |
| CCTAATACATGGACCGGTTTTCCCGGTAATCCGTATTTGGG (site CCTAATACTAC) | 0 |
| CCTAATACATGGACCGGTTTTCCCGGTAATCCGTATTTGGG (site CCTAATACTCC) | 0.011 |
| CCTAATACATGGACCGGTTTTCCCGGTAATCCGTATTTGGG (site CCTAATACTGC) | 0 |
| CCTAATACATGGACCGGTTTTCCCGGTAATCCGTATTTGGG (site CCTAATACTTC) | 0.0102 |

| Sequence | recombinant UMI read abundance (log10) |
| --- | --- |
| CCTAATGCATGGACCGGTTTTCCCGGTAATCCGTATTTGAT (site CCTAAAGCTAT) | 0 |
| CCTAATGCATGGACCGGTTTTCCCGGTAATCCGTATTTGAT (site CCTAACGCTAT) | 0.00278 |
| CCTAATGCATGGACCGGTTTTCCCGGTAATCCGTATTTGAT (site CCTAAGGCTAT) | 0 |
| CCTAATGCATGGACCGGTTTTCCCGGTAATCCGTATTTGAT (site CCTAATGCTAT) | 0 |
| CCTACGCCATGGACCGGTTTTCCCGGTAATCCGTATTTGAA (site CCTACGCCTTT) | 0.0231 |
| CCTACTGCATGGACCGGTTTTCCCGGTAATCCGTATTTGCC (site ACTACTGCTGG) | 0 |
| CCTACTGCATGGACCGGTTTTCCCGGTAATCCGTATTTGCC (site CCTACTGCTGG) | 0.191 |
| CCTACTGCATGGACCGGTTTTCCCGGTAATCCGTATTTGCC (site GCTACTGCTGG) | 0 |
| CCTACTGCATGGACCGGTTTTCCCGGTAATCCGTATTTGCC (site TCTACTGCTGG) | 0 |
| CCTCAAGCATGGACCGGTTTTCCCGGTAATCCGTATTTGAT (site CCTAAAGCTAT) | 0 |
| CCTCAAGCATGGACCGGTTTTCCCGGTAATCCGTATTTGAT (site CCTCAAGCTAT) | 0.0413 |
| CCTCAAGCATGGACCGGTTTTCCCGGTAATCCGTATTTGAT (site CCTGAAGCTAT) | 0.00432 |
| CCTCAAGCATGGACCGGTTTTCCCGGTAATCCGTATTTGAT (site CCTTAAGCTAT) | 0 |
| CCTCACTCATGGACCGGTTTTCCCGGTAATCCGTATTTGCT (site CCTCACTCTAG) | 0.747 |
| CCTCCGGCATGGACCGGTTTTCCCGGTAATCCGTATTTGGT (site CCTCCGGCTAC) | 0.0132 |
| CCTCGATCATGGACCGGTTTTCCCGGTAATCCGTATTTGGC (site CCTCGATCTGC) | 0 |
| CCTCGGACATGGACCGGTTTTCCCGGTAATCCGTATTTGGT (site CCTCGGACTAC) | 0.013 |
| CCTCGTACATGGACCGGTTTTCCCGGTAATCCGTATTTGAG (site CCTCGTACTCT) | 0.0191 |
| CCTGCAGCATGGACCGGTTTTCCCGGTAATCCGTATTTGGC (site CCTGCAGCTGC) | 0 |
| CCTGGTTCATGGACCGGTTTTCCCGGTAATCCGTATTTGAC (site CCTGGTTCTGT) | 0 |
| CCTGTCGCATGGACCGGTTTTCCCGGTAATCCGTATTTGAA (site CCTGTCGCTTT) | 0.0175 |
| CCTGTCGCATGGACCGGTTTTCCCGGTAATCCGTATTTGAC (site CCTGTCGCTGT) | 0 |
| CCTTAACCATGGACCGGTTTTCCCGGTAATCCGTATTTGCT (site CCTTAACCTAG) | 0 |
| CCTTACGCATGGACCGGTTTTCCCGGTAATCCGTATTTGGC (site CCTTACGCTGC) | 0 |
| CCTTATACATGGACCGGTTTTCCCGGTAATCCGTATTTGGG (site CCTTATACTCC) | 0.016 |

| Sequence | recombinant UMI read abundance (log10) |
| --- | --- |
| CCTTATACATGGACCGGTTTTCCCGGTAATCCGTATTTGGT (site CCTTATACTAC) | 0.00722 |
| CCTTCTGCATGGACCGGTTTTCCCGGTAATCCGTATTTGGA (site CCTTCTGCTTC) | 0.00377 |
| CCTTTCGCATGGACCGGTTTTCCCGGTAATCCGTATTTGAT (site CCTTTCGCTAT) | 0.0105 |
| CCTTTCTCATGGACCGGTTTTCCCGGTAATCCGTATTTGGG (site CCATTCTCTCC) | 0.00388 |
| CCTTTCTCATGGACCGGTTTTCCCGGTAATCCGTATTTGGG (site CCCTTCTCTCC) | 0.0264 |
| CCTTTCTCATGGACCGGTTTTCCCGGTAATCCGTATTTGGG (site CCGTTCTCTCC) | 0.011 |
| CCTTTCTCATGGACCGGTTTTCCCGGTAATCCGTATTTGGG (site CCTTTCTCTCC) | 0 |
| CCTTTGGCATGGACCGGTTTTCCCGGTAATCCGTATTTGCT (site CATTTGGCTAG) | 0.00684 |
| CCTTTGGCATGGACCGGTTTTCCCGGTAATCCGTATTTGCT (site CCTTTGGCTAG) | 0.00901 |
| CCTTTGGCATGGACCGGTTTTCCCGGTAATCCGTATTTGCT (site CGTTTGGCTAG) | 0 |
| CCTTTGGCATGGACCGGTTTTCCCGGTAATCCGTATTTGCT (site CTTTTGGCTAG) | 0.00684 |
| CGAAAACCATGGACCGGTTTTCCCGGTAATCCGTATTTGTT (site CGAAAACCTAA) | 0 |
| CGAAAACCATGGACCGGTTTTCCCGGTAATCCGTATTTGTT (site CGGAATCCTAA) | 0 |
| CGAACATCATGGACCGGTTTTCCCGGTAATCCGTATTTGAT (site CGAACATCTAT) | 1.63 |
| CGAACATCATGGACCGGTTTTCCCGGTAATCCGTATTTGAT (site CGATCATCTAG) | 0 |
| CGAAGTGCATGGACCGGTTTTCCCGGTAATCCGTATTTGGG (site CGAAGTGCTCC) | 0.671 |
| CGAATGCCATGGACCGGTTTTCCCGGTAATCCGTATTTGAC (site CGAATGCCTGT) | 0.465 |
| CGACCATCATGGACCGGTTTTCCCGGTAATCCGTATTTGCT (site CGAACATCTAG) | 1.13 |
| CGACCATCATGGACCGGTTTTCCCGGTAATCCGTATTTGCT (site CGACCATCTAG) | 2.13 |
| CGACCATCATGGACCGGTTTTCCCGGTAATCCGTATTTGCT (site CGAGCATCTAG) | 0 |
| CGACCATCATGGACCGGTTTTCCCGGTAATCCGTATTTGCT (site CGATCATCTAG) | 0 |
| CGACGCGCATGGACCGGTTTTCCCGGTAATCCGTATTTGGG (site CGACGCGCTCC) | 0.672 |
| CGACTATCATGGACCGGTTTTCCCGGTAATCCGTATTTGTG (site CGACTATCTCA) | 3.11 |
| CGACTCTCATGGACCGGTTTTCCCGGTAATCCGTATTTGAC (site CGACTCTCTGT) | 2.88 |
| CGAGAACCATGGACCGGTTTTCCCGGTAATCCGTATTTGAT (site CGAGAACCTAT) | 0 |
